Source: US20230021483A1, “[…] […] METHOD AND CLASSIFICATION OF PHARMACEUTICAL COMPONENTS BY USING TRANSCRIPTOMES” (National Institutes of Biomedical Innovation, Health and …, priority 2016, published 2023)

What was measured:
[1] = system: adjuvant-associated biological themes in LV, SP, LN
Method in brief: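 Per-mouse whole-organ transcriptomes; genes with eij/ei(c)>2.0 tested for theme enrichment via TargetMine (GO, KEGG, Reactome, others), Fisher's exact test, Holm-Bonferroni correction. Themes shared by all three mice kept at p<0.05, using the smallest p. Score per adjuvant-associated term = Σ−log(p) of matching themes.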

[2] = literature reports; cited from earlier work

Cc1ccc2c(=O)c3cccc(CC(=O)O)c3oc2c1C [DMXAA, 5,6-dimethylxanthenone-4-acetic acid]
GO annotation: Cytokine-cytokine receptor interaction (Term: cytokine) ([1]; LV, ID): 0 | GO annotation: Cytokine-cytokine receptor interaction|Endocytosis (Term: cytokine) ([1]; LV, ID): 15.4 | GO annotation: I-kappaB kinase/NF-kappaB signaling (Term: NF-kappa B signaling pathway) ([1]; LV, ID): 0 | GO annotation: NF-kappa B signaling pathway (Term: NF-kappa B signaling pathway) ([1]; LV, ID): 3.77 | GO annotation: TNF signaling pathway (Term: TNF signaling pathway) ([1]; LV, ID): 10.7 | GO annotation: activation of immune response (Term: immune response) ([1]; LV, ID): 5.67 | GO annotation: activation of innate immune response (Term: innate immune response) ([1]; LV, ID): 9.24 | GO annotation: acute inflammatory response (Term: inflammatory response) ([1]; LV, ID): 0 | GO annotation: adaptive immune response (Term: adaptive immune response) ([1]; LV, ID): 0 | GO annotation: apoptotic process (Term: apoptosis) ([1]; LV, ID): 0 | GO annotation: apoptotic signaling pathway (Term: apoptosis) ([1]; LV, ID): 0 | GO annotation: cell chemotaxis (Term: chemotaxis) ([1]; LV, ID): 0 | GO annotation: cell death (Term: cell death) ([1]; LV, ID): 6.04 | GO annotation: cell migration (Term: migration) ([1]; LV, ID): 0 | GO annotation: cellular response to cytokine stimulus (Term: cytokine) ([1]; LV, ID): 16.7 | GO annotation: cellular response to interferon-alpha (Term: IFN alpha) ([1]; LV, ID): 9.3 | GO annotation: cellular response to stress (Term: stress) ([1]; LV, ID): 0 | GO annotation: chemokine production (Term: chemokine) ([1]; LV, ID): 0 | GO annotation: chemokine-mediated signaling pathway (Term: chemokine) ([1]; LV, ID): 0 | GO annotation: chemotaxis (Term: chemotaxis) ([1]; LV, ID): 0 | GO annotation: cytokine biosynthetic process (Term: cytokine) ([1]; LV, ID): 0 | GO annotation: cytokine metabolic process (Term: cytokine) ([1]; LV, ID): 0 | GO annotation: cytokine production (Term: cytokine) ([1]; LV, ID): 6.98 | GO annotation: cytokine secretion (Term: cytokine) ([1]; LV, ID): 0 | GO annotation: cytokine-mediated signaling pathway (Term: cytokine) ([1]; LV, ID): 0 | GO annotation: death (Term: cell death) ([1]; LV, ID): 0 | GO annotation: defense response (Term: defense response) ([1]; LV, ID): 48.4 | GO annotation: defense response to Gram-positive bacterium (Term: defense response) ([1]; LV, ID): 0 | GO annotation: defense response to bacterium (Term: defense response) ([1]; LV, ID): 0 | GO annotation: defense response to other organism (Term: defense response) ([1]; LV, ID): 23.6 | GO annotation: defense response to protozoan (Term: defense response) ([1]; LV, ID): 3.52 | GO annotation: defense response to virus (Term: defense response) ([1]; LV, ID): 15 | GO annotation: granulocyte chemotaxis (Term: chemotaxis) ([1]; LV, ID): 0 | GO annotation: granulocyte migration (Term: migration) ([1]; LV, ID): 0 | GO annotation: immune response (Term: immune response) ([1]; LV, ID): 25.5 | GO annotation: immune response-activating signal transduction (Term: immune response) ([1]; LV, ID): 5.98 | GO annotation: immune response-regulating signaling pathway (Term: immune response) ([1]; LV, ID): 8.39 | GO annotation: inflammatory response (Term: inflammatory response) ([1]; LV, ID): 0 | GO annotation: innate immune response (Term: innate immune response) ([1]; LV, ID): 34.9 | GO annotation: innate immune response-activating signal transduction (Term: innate immune response) ([1]; LV, ID): 7.99 | GO annotation: interferon-alpha production (Term: IFN alpha) ([1]; LV, ID): 6.81 | GO annotation: intrinsic apoptotic signaling pathway (Term: apoptosis) ([1]; LV, ID): 0 | GO annotation: leukocyte chemotaxis (Term: chemotaxis) ([1]; LV, ID): 0 | GO annotation: leukocyte migration (Term: migration) ([1]; LV, ID): 0 | GO annotation: leukocyte migration involved in inflammatory response (Term: inflammatory response) ([1]; LV, ID): 0 | GO annotation: lymphocyte chemotaxis (Term: chemotaxis) ([1]; LV, ID): 0 | GO annotation: lymphocyte migration (Term: migration) ([1]; LV, ID): 0 | GO annotation: myeloid leukocyte migration (Term: migration) ([1]; LV, ID): 0 | GO annotation: negative regulation of apoptotic process (Term: apoptosis) ([1]; LV, ID): 0 | GO annotation: negative regulation of cell death (Term: cell death) ([1]; LV, ID): 0 | GO annotation: negative regulation of cytokine production (Term: cytokine) ([1]; LV, ID): 0 | GO annotation: negative regulation of defense response (Term: defense response) ([1]; LV, ID): 0 | GO annotation: negative regulation of immune response (Term: immune response) ([1]; LV, ID): 0 | GO annotation: negative regulation of innate immune response (Term: innate immune response) ([1]; LV, ID): 0 | GO annotation: negative regulation of programmed cell death (Term: cell death) ([1]; LV, ID): 0 | GO annotation: neutrophil chemotaxis (Term: chemotaxis) ([1]; LV, ID): 0 | GO annotation: neutrophil migration (Term: migration) ([1]; LV, ID): 0 | GO annotation: positive regulation of I-kappaB kinase/NF-kappaB signaling (Term: NF-kappa B signaling pathway) ([1]; LV, ID): 0 | GO annotation: positive regulation of adaptive immune response (Term: adaptive immune response) ([1]; LV, ID): 0 | GO annotation: positive regulation of apoptotic process (Term: apoptosis) ([1]; LV, ID): 0 | GO annotation: positive regulation of cell death (Term: cell death) ([1]; LV, ID): 0 | GO annotation: positive regulation of cell migration (Term: migration) ([1]; LV, ID): 0 | GO annotation: positive regulation of chemokine production (Term: chemokine) ([1]; LV, ID): 0 | GO annotation: positive regulation of chemotaxis (Term: chemotaxis) ([1]; LV, ID): 0 | GO annotation: positive regulation of cytokine biosynthetic process (Term: cytokine) ([1]; LV, ID): 0 | GO annotation: positive regulation of cytokine production (Term: cytokine) ([1]; LV, ID): 7.86 | GO annotation: positive regulation of defense response (Term: defense response) ([1]; LV, ID): 19 | GO annotation: positive regulation of immune response (Term: immune response) ([1]; LV, ID): 10.2 | GO annotation: positive regulation of inflammatory response (Term: inflammatory response) ([1]; LV, ID): 0 | GO annotation: positive regulation of innate immune response (Term: innate immune response) ([1]; LV, ID): 12.4 | GO annotation: positive regulation of interferon-alpha production (Term: IFN alpha) ([1]; LV, ID): 7.85 | GO annotation: positive regulation of leukocyte chemotaxis (Term: chemotaxis) ([1]; LV, ID): 0 | GO annotation: positive regulation of leukocyte migration (Term: migration) ([1]; LV, ID): 0 | GO annotation: positive regulation of programmed cell death (Term: cell death) ([1]; LV, ID): 0 | GO annotation: positive regulation of response to wounding (Term: wounding) ([1]; LV, ID): 0 | GO annotation: positive regulation of tumor necrosis factor superfamily cytokine (Term: cytokine) ([1]; LV, ID): 0 | GO annotation: production of molecular mediator of immune response (Term: immune response) ([1]; LV, ID): 0 | GO annotation: programmed cell death (Term: cell death) ([1]; LV, ID): 0 | GO annotation: regulation of I-kappaB kinase/NF-kappaB signaling (Term: NF-kappa B signaling pathway) ([1]; LV, ID): 0 | GO annotation: regulation of adaptive immune response (Term: adaptive immune response) ([1]; LV, ID): 0 | GO annotation: regulation of apoptotic process (Term: apoptosis) ([1]; LV, ID): 0 | GO annotation: regulation of apoptotic signaling pathway (Term: apoptosis) ([1]; LV, ID): 0 | GO annotation: regulation of cell death (Term: cell death) ([1]; LV, ID): 0 | GO annotation: regulation of cell migration (Term: migration) ([1]; LV, ID): 0 | GO annotation: regulation of chemokine production (Term: chemokine) ([1]; LV, ID): 0 | GO annotation: regulation of chemotaxis (Term: chemotaxis) ([1]; LV, ID): 0 | GO annotation: regulation of cytokine biosynthetic process (Term: cytokine) ([1]; LV, ID): 0 | GO annotation: regulation of cytokine production (Term: cytokine) ([1]; LV, ID): 8.37 | GO annotation: regulation of defense response (Term: defense response) ([1]; LV, ID): 26.8 | GO annotation: regulation of defense response to virus (Term: defense response) ([1]; LV, ID): 0 | GO annotation: regulation of defense response to virus by host (Term: defense response) ([1]; LV, ID): 0 | GO annotation: regulation of immune response (Term: immune response) ([1]; LV, ID): 12.4 | GO annotation: regulation of inflammatory response (Term: inflammatory response) ([1]; LV, ID): 0 | GO annotation: regulation of innate immune response (Term: innate immune response) ([1]; LV, ID): 19.8 | GO annotation: regulation of interferon-alpha production (Term: IFN alpha) ([1]; LV, ID): 7.3 | GO annotation: regulation of intrinsic apoptotic signaling pathway (Term: apoptosis) ([1]; LV, ID): 0 | GO annotation: regulation of leukocyte chemotaxis (Term: chemotaxis) ([1]; LV, ID): 0 | GO annotation: regulation of leukocyte migration (Term: migration) ([1]; LV, ID): 0 | GO annotation: regulation of programmed cell death (Term: cell death) ([1]; LV, ID): 0 | GO annotation: regulation of response to stress (Term: stress) ([1]; LV, ID): 21 | GO annotation: regulation of response to wounding (Term: wounding) ([1]; LV, ID): 3.49 | GO annotation: regulation of tumor necrosis factor superfamily cytokine production (Term: cytokine) ([1]; LV, ID): 0 | GO annotation: response to cytokine (Term: cytokine) ([1]; LV, ID): 26.5 | GO annotation: response to interferon-alpha (Term: IFN alpha) ([1]; LV, ID): 11.3 | GO annotation: response to stress (Term: stress) ([1]; LV, ID): 40.4 | GO annotation: response to wounding (Term: wounding) ([1]; LV, ID): 0 | GO annotation: taxis (Term: chemotaxis) ([1]; LV, ID): 0 | GO annotation: tumor necrosis factor superfamily cytokine production (Term: cytokine) ([1]; LV, ID): 0 | IFN beta: cellular response to interferon-beta ([1]; LV, ID): 16.7 | IFN beta: interferon-beta production ([1]; LV, ID): 0 | IFN beta: positive regulation of interferon-beta production ([1]; LV, ID): 5.66 | IFN beta: regulation of interferon-beta production ([1]; LV, ID): 3.09 | IFN beta: response to interferon-beta ([1]; LV, ID): 17.9 | IFN gamma: cellular response to interferon-gamma ([1]; LV, ID): 7.37 | IFN gamma: interferon-gamma production ([1]; LV, ID): 0 | IFN gamma: regulation of interferon-gamma production ([1]; LV, ID): 0 | IFN gamma: response to interferon-gamma ([1]; LV, ID): 10.3 | interleukin-6: interleukin-6 production ([1]; LV, ID): 0 | interleukin-6: positive regulation of interleukin-6 production ([1]; LV, ID): 0 | interleukin-6: regulation of interleukin-6 production ([1]; LV, ID): 0 | interleukin-12: interleukin-12 production ([1]; LV, ID): 0 | interleukin-12: positive regulation of interleukin-12 production ([1]; LV, ID): 0 | interleukin-12: regulation of interleukin-12 production ([1]; LV, ID): 0 | GO annotation: adaptive immune response based on somatic recombination of immune receptors built from immunoglobulin superfamily domains (Term: adaptive immune response) ([1]; mouse, in vivo): 0 | GO annotation: regulation of adaptive immune response based on somatic recombination of immune receptors built from immunoglobulin superfamily domains (Term: adaptive immune response) ([1]; mouse, in vivo): 0 | Th response induced [2]: induces Th2 responses
